Assay results reported in patent US20050272748A1, “2-Mercapto-substituted triazolopyrimidines, methods for the production thereof, the use of the same for controlling patogenic fungi, and agents containing said compounds” (BASF Aktiengesellschaft, priority 2002, published 2005).

Tested on: Botrytis cinerea
Experiment: Activity against gray mold on bell pepper leaves, protective application
Type: in vivo
Settings: 250 ppm active compound; bell pepper seedlings sprayed to runoff, inoculated next day, evaluated after 5 days; untreated plants 45% infected
Procedure: The active compounds were prepared as a 10% strength emulsion in a mixture of 70% by weight of cyclohexanone, 20% by weight of Nekanil®) LN (Lutensol®) AP6, wetting agent having emulsifying and dispersing action based on ethoxylated alkylphenols) and 10% by weight of Wettol® EM (nonionic emulsifier based on ethoxylated castor oil) and diluted with water to the desired concentration. Use example: Activity against gray mold, caused by Botiytis cinerea, on bell pepper leaves, protective application Bell pepper seedlings of the cultivar “Neusiedler Ideal Elite” were, after 4 to 5 leaves were well-developed, sprayed to runoff-point with an aqueous suspension having the concentration of active compound stated below. The next day, the treated plants were inoculated with a spore suspension of Botrytis cinerea, which contained 1.7×10^6 spores/ml in an aqueous 2% strength biomalt solution. […] After 5 days, the extent of the fungal infection on the leaves could be determined visually in %. […] The efficacy (E) is calculated as follows, using Abbot's formula: E=(1−α/β)·100 • α corresponds to the fungal infection of the treated plants in % and • β corresponds to the fungal infection of the untreated (control) plants in % At an efficacy of 0, the degree of infection of the treated plants corresponds to that of the untreated control plants; at an efficacy of 100, the treated plants were not infected.

CC1CCN(c2c(-c3c(F)cc(F)cc3F)c(Cl)nc3nc(S)nn23)CC1 [Example 9, 5-chloro-7-(4-methylpiperidin-1-yl)-2-mercapto-6-(2,4,6-trifluorophenyl)-[1,2,4]-triazolo[1,5-a]pyrimidine]
efficacy (Abbot's formula): 56%
